Source: ChEMBL document CHEMBL5226347, “Discovery of Chromane-6-Sulfonamide Derivative as a Potent, Selective, and Orally Available Novel Retinoic Acid Receptor-Related Orphan Receptor γt Inverse Agonist” (J Med Chem, 2021)
≈ marks a conversion by molar mass, not a printed value.

Legend:
[1] = Lipophilicity, log D of the compound at pH 7.4; type: physicochemical; details: buffer
[2] = Metabolic stability in human liver microsomes assessed as half life incubated for 5 to 30 mins by HPLC-MS/MS analysis; type: ADME, Microsome; details: time 5-30 min; for t1/2: microsomes
[3] = Metabolic stability in human liver assessed as intrinsic clearance incubated for 5 to 30 mins by HPLC-MS/MS analysis; type: ADME, tissue-based; details: liver (preparation not stated), time 5-30 min, read-out: CLH
[4] = Metabolic stability in human liver microsomes assessed as parent compound remaining measured at 60 mins by HPLC-MS/MS analysis; type: ADME, Microsome; details: 1 h
[5] = Solubility of compound in aqueous buffer at pH 7.4; type: physicochemical
[6] = tested on: Mus musculus; test: Antiinflammatory activity against imiquimod-induced Balb/c mouse skin inflammation model assessed as reduction in severity index score at 20 mg/kg, po BID for 13 days; type: functional; design: scale not given: the % may be the effect or the level left; details: time 13 day
[7] = tested on: Mus musculus; test: Antiinflammatory activity against imiquimod-induced Balb/c mouse skin inflammation model assessed as inhibition of IL-17A level at 20 mg/kg, po measured for 13 days; type: functional; design: scale not given: the % may be the effect or the level left; details: time 13 day
[8] = tested on: Mus musculus; test: Antiinflammatory activity against imiquimod-induced Balb/c mouse skin inflammation model assessed as inhibition of IL-6 level at 20 mg/kg, po measured for 13 days; type: functional; design: scale not given: the % may be the effect or the level left; details: time 13 day
[9] = biological target: T1, Nuclear receptor ROR-gamma (Homo sapiens, UniProt P51449); test: Displacement of BODIPY from APC-labelled human RORgammat LBD incubated for 15 mins by LANCE detection analysis
T1 sequence (P51449 whole entry): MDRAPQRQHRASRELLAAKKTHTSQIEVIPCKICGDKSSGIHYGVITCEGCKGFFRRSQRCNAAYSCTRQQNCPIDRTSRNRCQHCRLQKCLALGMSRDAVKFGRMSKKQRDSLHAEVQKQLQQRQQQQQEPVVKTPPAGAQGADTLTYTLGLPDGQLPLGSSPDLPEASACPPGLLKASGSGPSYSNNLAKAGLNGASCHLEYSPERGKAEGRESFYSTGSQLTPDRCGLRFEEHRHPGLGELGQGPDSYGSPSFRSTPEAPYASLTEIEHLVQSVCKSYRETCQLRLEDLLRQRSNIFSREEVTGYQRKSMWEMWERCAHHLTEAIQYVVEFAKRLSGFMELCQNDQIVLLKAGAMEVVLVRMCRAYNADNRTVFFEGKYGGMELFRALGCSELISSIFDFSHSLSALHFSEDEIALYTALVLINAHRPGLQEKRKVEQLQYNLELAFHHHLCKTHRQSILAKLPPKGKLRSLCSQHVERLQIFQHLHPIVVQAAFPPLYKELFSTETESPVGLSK

[10] = biological target: T1, Nuclear receptor ROR-gamma; test: Inhibition of RORgammat in human Jurkat cells assessed as inhibition of RORgammat transcriptional activity incubated for 10 mins by luciferase reporter gene assay; type: cell-based

| SMILES | logD [1] | also measured |
| --- | --- | --- |
| CCc1ccc(N(CC(C)C)S(=O)(=O)c2ccc3c(c2)C(O)CC(C2CCNCC2)O3)cc1 (centres undefined) | 1.04 |  |
| CCc1ccc(N(CC(C)C)S(=O)(=O)c2ccc3c(c2)CCC(C2CCOCC2)O3)cc1 (centres undefined) | 5.38 |  |
| CCc1ccc(N(CC(C)C)S(=O)(=O)c2ccc3c(c2)C=CC(C2CCOCC2)O3)cc1 (centres undefined) | 5.52 |  |
| CCc1ccc(N(CC(C)C)S(=O)(=O)c2ccc3c(c2)C(O)CC(C2CCN(S(C)(=O)=O)CC2)O3)cc1 (centres undefined) | 3.22 |  |
| CCc1ccc(N(CC(C)C)S(=O)(=O)c2ccc(OCC3CCOCC3)c(CO)c2)cc1 [GSK2981278] | 4.1 | t1/2 [2]: 0.8 min; CLint scaled [3]: 1610 mL/min/kg; Stability [4]: 0.2%; solubility [5]: 2.12 µg/mL (≈ 4.59 µM); Activity [6]: 61.5%; Activity [7]: 82.2%; Activity [8]: 59.4% |
| CCc1ccc(N(CC(C)C)S(=O)(=O)c2ccc3c(c2)C(N)CC(C2CCOCC2)O3)cc1 (centres undefined) | 3.08 |  |
| CCc1ccc(N(CC(C)C)S(=O)(=O)c2ccc(OCC3CCOCC3)c3c2CCCC3O)cc1 (centres undefined) | 4.95 |  |
| CCc1ccc(N(CC(C)C)S(=O)(=O)c2ccc3c(c2)C(C)CC(C2CCOCC2)O3)cc1 (centres undefined) | 5.71 |  |
| CCc1ccc(N(CC(C)C)S(=O)(=O)c2ccc3nc(C4CCOCC4)cc(O)c3c2)cc1 | 4.97 |  |
| CCc1ccc(N(CC(C)C)S(=O)(=O)c2ccc3c(c2)CCC3OC2CCOCC2)cc1 (centres undefined) | 4.96 |  |
| CCc1ccc(N(CC(C)C)S(=O)(=O)c2ccc3c(c2)C(OC2CCCCC2)CC(C2CCOCC2)O3)cc1 (centres undefined) | 6.28 |  |
| CCc1ccc(N(CC(C)C)S(=O)(=O)c2ccc3c(c2)C(O)CC(C2CCN(C(=O)C4CCCC4)CC2)O3)cc1 (centres undefined) | 5.04 |  |
| CCc1ccc(N(CC(C)C)S(=O)(=O)c2ccc3c(c2)C(O)CC(C2CCN(C)CC2)O3)cc1 (centres undefined) | 2.67 |  |
| CCc1ccc(N(CC(C)C)S(=O)(=O)c2ccc3c(c2)C(O)CC(C(C)C2CCOCC2)O3)cc1 (centres undefined) | 5.04 |  |
| Cc1ccc(N(CC(C)C)S(=O)(=O)c2ccc3c(c2)C(O)CC(C2CCOCC2)O3)c(C)c1 (centres undefined) | 4.19 |  |
| CCc1ccc(N(CC(C)C)S(=O)(=O)c2ccc(OCC3CCOCC3)c(CN)c2)cc1 | 3.25 |  |
| CCc1ccc(N(CC(C)C)S(=O)(=O)c2ccc3c(c2)C(C)(O)CC(C2CCOCC2)O3)cc1 (centres undefined) | 4.19 |  |
| CCc1ccc(N(CC(C)C)S(=O)(=O)c2ccc3c(c2)C(OC)CC(C2CCOCC2)O3)cc1 (centres undefined) | 4.69 |  |
| CCc1ccc(N(CC(C)C)S(=O)(=O)c2ccc3c(c2)C(O)CC(CC2CCOCC2)O3)cc1 (centres undefined) | 4.44 |  |
| CCc1ccc(N(CC(C)C)S(=O)(=O)c2ccc(OCC3CCOCC3)c3c2CCC3O)cc1 (centres undefined) | 4.55 |  |
| CCS(=O)(=O)c1ccc(CN(CC(C)C)S(=O)(=O)c2ccc3c(c2)C(O)CC(C2CCOCC2)O3)nc1 (centres undefined) | 1.42 | IC50 [9]: > 10 µM; IC50 [10]: > 10 µM |

Second part, led by results:

| logD [1] | SMILES | also measured |
| --- | --- | --- |
| 3.92 | CC(C)CN(c1cc2ccccc2s1)S(=O)(=O)c1ccc2c(c1)C(O)CC(C1CCOCC1)O2 (centres undefined) | t1/2 [2]: 25.2 min; CLint scaled [3]: 53.7 mL/min/kg; Stability [4]: 28.5% |
| 4.01 | CCc1ccc(N(CC2CCC2)S(=O)(=O)c2ccc3c(c2)C(O)CC(C2CCOCC2)O3)cc1 (centres undefined) |  |
| 2.59 | CCc1ccc(NS(=O)(=O)c2ccc3c(c2)C(O)CC(C2CCOCC2)O3)cc1 (centres undefined) |  |
| 3.53 | CC(C)CN(c1ccc(F)cc1F)S(=O)(=O)c1ccc2c(c1)C(O)CC(C1CCOCC1)O2 (centres undefined) |  |
| 4.12 | CCc1ccc(N(CC(C)C)S(=O)(=O)c2ccc3c(c2)C(O)C[C@H](C2CCOCC2)O3)cc1 (some centres undefined) |  |
| 3.39 | CC(C)CN(c1cccc(F)c1)S(=O)(=O)c1ccc2c(c1)C(O)CC(C1CCOCC1)O2 (centres undefined) |  |
| 3.39 | CC(C)CN(c1ccc(F)cc1)S(=O)(=O)c1ccc2c(c1)C(O)CC(C1CCOCC1)O2 (centres undefined) |  |
| 3.68 | CCc1ccc2c(c1)CC(C)CN2S(=O)(=O)c1ccc2c(c1)C(O)CC(C1CCOCC1)O2 (centres undefined) |  |
| 3.94 | CC(C)CN(C1CCc2ccc(F)cc21)S(=O)(=O)c1ccc2c(c1)C(O)CC(C1CCOCC1)O2 (centres undefined) |  |
| 3.41 | O=S(=O)(c1ccc2c(c1)C(O)CC(C1CCOCC1)O2)N1CCCC1c1ccccc1C(F)(F)F (centres undefined) | t1/2 [2]: 7.6 min; CLint scaled [3]: 172 mL/min/kg; Stability [4]: 5.2% |
| 2.41 | O=S(=O)(Nc1ccccc1C(F)(F)F)c1ccc2c(c1)C(O)CC(C1CCOCC1)O2 (centres undefined) | IC50 [9]: > 10 µM; IC50 [10]: > 10 µM |
| 4.23 | CC(C)CN(Cc1ccccc1C(F)(F)F)S(=O)(=O)c1ccc2c(c1)C(O)CC(C1CCOCC1)O2 (centres undefined) |  |
| 2.63 | CCc1ccc(N(C2COC2)S(=O)(=O)c2ccc3c(c2)C(O)CC(C2CCOCC2)O3)cc1 (centres undefined) |  |
| 3.77 | Cc1ccc(N(C2CCC2)S(=O)(=O)c2ccc3c(c2)C(O)CC(C2CCOCC2)O3)c(C)c1 (centres undefined) |  |
| 3.39 | CC(C)CN(c1ccccc1F)S(=O)(=O)c1ccc2c(c1)C(O)CC(C1CCOCC1)O2 (centres undefined) |  |
| 4.12 | CCc1ccc(N(CC(C)C)S(=O)(=O)c2ccc3c(c2)C(O)C[C@@H](C2CCOCC2)O3)cc1 (some centres undefined) |  |
| 4.37 | Cc1cc(C(O)(C(F)(F)F)C(F)(F)F)ccc1N(CC(C)C)S(=O)(=O)c1ccc2c(c1)C(O)CC(C1CCOCC1)O2 (centres undefined) |  |
| 3.51 | CC(C)CN(c1ccc(N(C)C)cc1)S(=O)(=O)c1ccc2c(c1)C(O)CC(C1CCOCC1)O2 (centres undefined) |  |
| 3.07 | CC(C)CN(c1ccc(C#N)cc1)S(=O)(=O)c1ccc2c(c1)C(O)CC(C1CCOCC1)O2 (centres undefined) | t1/2 [2]: 0.8 min; CLint scaled [3]: 1520 mL/min/kg; Stability [4]: 0.3% |
| 2.63 | O=S(=O)(c1ccc2c(c1)C(O)CC(C1CCOCC1)O2)N1CCC(c2ccccc2)CC1 (centres undefined) | IC50 [9]: > 10 µM; IC50 [10]: > 10 µM |
| 4.68 | CCc1ccc(N(Cc2ccccc2)S(=O)(=O)c2ccc3c(c2)C(O)CC(C2CCOCC2)O3)cc1 (centres undefined) |  |
| 3.88 | CCc1ccc(N(CC(F)(F)F)S(=O)(=O)c2ccc3c(c2)C(O)CC(C2CCOCC2)O3)cc1 (centres undefined) |  |
| 4.12 | CCc1ccc(N(CC(C)C)S(=O)(=O)c2ccc3c(c2)C(O)CC(C2CCOCC2)O3)cc1 (centres undefined) | half-life ([2]; liver microsomes): 222 min; CLint scaled [3]: 330 mL/min/kg |
| 4.14 | CC(C)CN(c1ccccc1C(F)(F)F)S(=O)(=O)c1ccc2c(c1)C(O)CC(C1CCOCC1)O2 (centres undefined) |  |
